From patent publication US7279499B2, “Substituted benzopyrans as selective estrogen receptor-beta agonists” (Eli Lilly and Company, priority 2004, dated 2007) come the findings set out here.

Structures are written as SMILES.

In turn, `OCc1cc(O)cc2c1O[C@@H](c1ccc(O)cc1)[C@H]1CCC[C@@H]21` (single isomer, unassigned) [Example 2B] had a melting point of 195 to 197 °C. Regarding `CCOCc1cc(O)cc2c1O[C@@H](c1ccc(O)cc1)[C@H]1CCC[C@@H]21` (single isomer, unassigned) [Example 3B], the melting point was in the range of 62 to 66 °C. With `COCc1cc(O)cc2c1O[C@@H](c1ccc(O)cc1)[C@H]1CCC[C@@H]21` [Example 1B, (3aS, 4R, 9bR)-4-(4-Hydroxy-phenyl)-6-methoxymethyl-1,2,3,3a,4,9b-hexahydro-cyclopenta[c]chromen-8-ol], the melting point was in the range of 76 to 80 °C.
